In BindingDB's records for patent US9610299 (Gilead Sciences, 2017):

What was measured:
[1] = target: T1, Amine oxidase [flavin-containing] B (Homo sapiens, UniProt P27338); test: MAO-A and MAO-B Assay
T1 sequence (P27338 whole entry): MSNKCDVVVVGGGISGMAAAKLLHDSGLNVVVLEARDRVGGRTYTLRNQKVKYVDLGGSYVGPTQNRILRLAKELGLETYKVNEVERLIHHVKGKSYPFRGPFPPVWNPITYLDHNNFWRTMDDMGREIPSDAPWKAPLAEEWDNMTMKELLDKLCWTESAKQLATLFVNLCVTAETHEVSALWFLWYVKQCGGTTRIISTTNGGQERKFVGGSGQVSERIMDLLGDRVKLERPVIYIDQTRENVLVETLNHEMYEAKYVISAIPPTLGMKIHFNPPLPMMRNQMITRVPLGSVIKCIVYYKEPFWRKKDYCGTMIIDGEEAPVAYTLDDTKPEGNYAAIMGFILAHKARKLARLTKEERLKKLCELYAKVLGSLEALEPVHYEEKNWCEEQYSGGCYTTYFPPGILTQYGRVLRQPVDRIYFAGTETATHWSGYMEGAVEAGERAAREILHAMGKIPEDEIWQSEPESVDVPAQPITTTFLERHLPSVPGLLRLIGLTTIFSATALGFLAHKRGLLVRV
Procedure: (§1) MAO assays included luminogenic MAO substrate, reaction buffers, Luciferin Detection and the reconstitution buffer with esterase. Standard MAO reaction mixtures included microsome contained MAO-A (2 ug) or MAO-B (10 ug), 160 uM substrate for MAO-A or 16 uM substrate for MAO-B, MAO-A buffer (100 mM Hepes buffer, pH 7.5, 5% glycerol) or MAO-B buffer (100 mM Hepes, pH 7.5, 5% glycerol, 10% dimethyl sulfoxide) in a final volume of 30 ul. After 20 minutes of pre-incubation of the enzyme with compounds, the reaction was initiated by adding enzyme substrate and the reaction was allowed to proceed for 60 minutes. Reconstituted Luciferin Detection Reagent (30 ul) was then added is added to simultaneously stop the MAO reaction and convert the methyl ester derivative to luciferin and produce light. The amount of light produced is directly proportional to the activity of MAO. The mixtures were further incubated for 20 minutes and activity of the enzyme was determined using Perkin-Elmer Envision Reader.

[2] = target: T2, Amine oxidase [flavin-containing] A (Homo sapiens, UniProt P21397); test: MAO-A and MAO-B Assay
T2 sequence (P21397 whole entry): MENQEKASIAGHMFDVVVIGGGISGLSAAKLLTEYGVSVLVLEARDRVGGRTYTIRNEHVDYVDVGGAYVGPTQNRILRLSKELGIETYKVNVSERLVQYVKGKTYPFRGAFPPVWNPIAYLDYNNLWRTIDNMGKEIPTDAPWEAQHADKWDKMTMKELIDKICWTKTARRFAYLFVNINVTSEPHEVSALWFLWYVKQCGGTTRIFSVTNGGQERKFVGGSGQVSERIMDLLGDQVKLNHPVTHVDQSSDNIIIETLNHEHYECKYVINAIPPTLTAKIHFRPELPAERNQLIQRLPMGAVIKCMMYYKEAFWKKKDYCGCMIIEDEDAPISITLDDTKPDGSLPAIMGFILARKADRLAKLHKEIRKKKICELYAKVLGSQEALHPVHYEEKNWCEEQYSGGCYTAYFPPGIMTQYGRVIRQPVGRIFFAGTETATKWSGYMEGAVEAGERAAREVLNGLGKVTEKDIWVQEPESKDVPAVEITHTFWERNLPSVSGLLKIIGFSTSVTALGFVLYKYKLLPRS
Procedure: as §1

[3] = target: T3, Aldehyde dehydrogenase, mitochondrial (Homo sapiens, UniProt P05091); test: ALDH2 Assay
T3 sequence (P05091 whole entry): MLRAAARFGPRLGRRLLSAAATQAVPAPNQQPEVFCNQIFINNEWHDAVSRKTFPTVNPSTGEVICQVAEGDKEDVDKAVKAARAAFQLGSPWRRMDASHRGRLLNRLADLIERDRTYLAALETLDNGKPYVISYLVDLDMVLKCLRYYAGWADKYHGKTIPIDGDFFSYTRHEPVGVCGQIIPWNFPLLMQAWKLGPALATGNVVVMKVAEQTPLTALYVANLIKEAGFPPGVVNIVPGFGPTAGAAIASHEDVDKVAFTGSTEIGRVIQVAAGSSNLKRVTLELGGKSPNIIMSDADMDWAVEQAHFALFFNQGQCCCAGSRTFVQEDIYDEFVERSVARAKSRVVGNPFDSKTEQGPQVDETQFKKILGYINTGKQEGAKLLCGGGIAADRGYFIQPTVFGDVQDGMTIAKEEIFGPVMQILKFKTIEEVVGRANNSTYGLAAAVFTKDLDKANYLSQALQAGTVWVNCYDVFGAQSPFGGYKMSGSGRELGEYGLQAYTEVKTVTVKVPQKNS
Procedure: Standard ALDH2 reaction mixtures contained 150 uM formaldehyde, 2.5 mM NAD+, 10 mM MgCl2 and 10 nM recombinant human ALDH2 in 50 mM Hepes buffer, pH 7.4, 0.01% Tween 20 in a final volume of 50 ul using 384-well plates. After 60 min of pre-incubation of compound with ALDH2 and formaldehyde, the reaction was started by adding NAD+ and the reaction mixture was allowed to proceed for 90 minutes. Activity of the enzyme was determined by monitoring NADH formation using Perkin-Elmer Envision Reader with excitation and emission wavelengths set at 340 and 460 nm, respectively.

IC50 [1]: > 130 µM | IC50 [2]: > 130 µM | IC50 [3]: 1.11 µM
SMILES: Cc1cccc(C)c1C(=O)NCc1ccc(C2CCNC(=O)C2)cc1 (stereo not drawn) [US9610299, Example 6]
